US12102610B2, “Treprostinil salt” (Eli Lilly and Company, priority 2018, dated 2024)
Structures can show the parent of a compound that is named as a salt.

What was measured:
[1] = Thermal stability by thermal gravimetric analysis (TGA); format: physicochemical
Method: The thermal stability of samples of treprostinil erbumine salt, prepared as described above, and treprostinil free acid, purchased from a chemical supply company, are analyzed through thermal gravimetric analyses (TGA) performed on a TA Instruments TGA-Q5000 thermal gravimetric analyzer and differential scanning calorimetry (DSC) performed on a TA Instruments Q2000 differential scanning calorimeter. FIGS. 1 (erbumine salt) and 2 (free acid) show overlays of the TGA thermograms from 25-225° C. and the DSC thermograms from 25-300° C. […] DSC data for the erbumine salt show a single endothermic event (likely melt or decomposition) beginning at 143.73° C. and three endothermic events (71.17° C., 95.57° C., and 125.15° C.) for the free acid, corresponding to what is likely a hydrate along with at least two anhydrous crystal forms.

[2] = Hygroscopicity by dynamic vapor sorption/resorption, with XRD of samples from the adsorption/desorption process; format: physicochemical; conditions: for weight increase at the 80% relative humidity point: dried samples, sorption in 5% RH steps; for hygroscopicity classification: from weight increase at 80% relative humidity, European Pharmacopoeia monograph 5.11 definitions, experimental conditions differ; for physical form change on humidity exposure (XRD): samples collected at different points in the adsorption/desorption process
Method: Hygroscopicity analyses of treprostinil erbumine salt, prepared as described above, and treprostinil sodium, purchased from a chemical supply company, are performed on a TA Instruments Q5000SA sorption analyzer. Hygroscopicity profiles are generated on dried samples at 25° C., increasing relative humidity by 5% up to 95%, then decreasing in 5% intervals back down to 5% relative humidity. The samples are equilibrated at each increment until weight percent change is <0.0100 for 5 min.

Structure (SMILES)	TGA weight loss ([1]; between 26-70° C.) [%]	relative humidity at which desorption of water begins ([2]; 25° C., desorption in 5% RH steps from 95%) [% RH]	weight increase at the 80% relative humidity point ([2]; 25° C.) [%]	hygroscopicity classification [2]	physical form change on humidity exposure (XRD) [2]	TGA weight loss ([1]; between 25-100° C.) [%]	thermally stable up to ([1]; conclusion from TGA/DSC thermal characterization data)
CCCCC[C@H](O)CC[C@@H]1[C@H]2Cc3cccc(OCC(=O)O)c3C[C@H]2C[C@H]1O [free acid, (1R,2R,3aS,9aS)-[[2,3,3a,4,9,9a-Hexahydro-2-hydroxy-1-[(3S)-3-hydroxyoctyl]-1H-benz[f]inden-5-yl]oxy]acetic acid]	1.090	–	–	–	–	–	–
CCCCC[C@H](O)CC[C@@H]1[C@H]2Cc3cccc(OCC(=O)O)c3C[C@H]2C[C@H]1O [sodium salt]	–	45	25	very hygroscopic	non-reversible change to amorphous or poorly crystalline state	–	–
CCCCC[C@H](O)CC[C@@H]1[C@H]2Cc3cccc(OCC(=O)O)c3C[C@H]2C[C@H]1O [erbumine salt, 2-[[(1R,2R,3aS,9aS)-2-hydroxy-1-[(3S)-3-hydroxyoctyl]-2,3,3a,4,9,9a-hexahydro-1H-cyclopenta[g]naphthalen-5-yl]oxy]acetic acid t-butylamine]	–	–	< 0.2	non-hygroscopic to slightly hygroscopic	did not show a physical form change	0.2318	at least 100 °C
